According to publication PMC12897534, “Design, synthesis, and antiproliferative activity of new 5-ethylsulfonyl-indazole-3-carbohydrazides as dual EGFR/VEGFR-2 kinases inhibitors” (Journal of Enzyme Inhibition and Medicinal Chemistry, 2025):
Where “and” joins values, the source holds several entries; their conditions need not be identical. Identical values can stand only once. Like-named read-outs stand apart in the source and are kept apart here.

Assays:
[1] = biological target: EGFR (Homo sapiens, UniProt P00533); assay: EGFR-TK inhibitory assay
Description: To record autophosphorylation level, EGFR kinase assay was carried out on the basis of DELFIA/Time-Resolved Fluorometry. […] Each compound (10 μL) was incubated with recombinant enzyme (10 μL, 5 ng for EGFR, 1:80 dilution in 100 mM HEPES) for 10 min at 25 °C, subsequent to the addition of 5X buffer (10 μL, containing 2 mM MnCl2, 100 μM Na3VO4, 20 mM HEPES and 1 mM DTT) and ATP-MgCl2 (20 μL, containing 0.1 mM ATP and 50 mM MgCl2) and incubation for 1h. The negative and positive controls were included in each plate by the incubation of enzyme either with or without ATP-MgCl2. The liquid was removed after incubation and the plates were washed thrice using a wash buffer. The Europium-tagged antiphosphotyrosine antibody (75 μL, 400 ng) was added to each well followed by incubation of 1h and then washing of the plates using buffer. […] The autophosphorylation percentage inhibition by compounds was calculated using the following equation:
The majority of signals detected by antiphosphotyrosine antibody were from EGFR because the enzyme preparation contained low impurities.

[2] = system: p53; assay: Apoptotic markers assay, p53 level in A-549 cells; format: cell-based, human; conditions: control 65
Description: (§1) The Bcl-2 protein family, comprising inducer proteins (Bax) and suppressor proteins (Bcl-2), primarily regulates apoptosis.
A prime example of a gene product is the p53 protein, which affects apoptosis. The potential for p53 overexpression to induce apoptosis may elucidate the frequent deactivation of p53 enzymes by cancer cells during transformation.
(§2) Appendix A gives more details.

[3] = system: four cancer cell lines (A-549, MCF-7, Panc-1, HT-29); assay: Antiproliferative assay, mean over the four cancer cell lines (GI50); format: cell-based, human; conditions: for IC50: mean IC50 of A-549, MCF-7, Panc-1, HT-29
Description: (§3) Table 1 presents the median inhibitory concentration (IC50) and GI50 (mean IC50) for the four cancer cell lines.
(§4) Refer to Appendix A for additional information.
All cell lines were obtained from ATCC (American Type Cell Culture). […]

[4] = system: HT-29 (colon) cancer cell line; assay: Antiproliferative assay, HT-29; format: cell-based, human; conditions: read-out: Antiproliferative activity IC50 ± SEM, HT-29
Description: as §3, §4
(§5) To explore the antiproliferative potential of compounds propidium iodide fluorescence assay was performed using different cell lines such as Panc-1 (pancreas cancer cell line) [Panc-1-CTC (RRID:CVCL_VQ69)], MCF-7 (breast cancer cell line) [MCF-7 (RRID:CVCL_0031)], HT-29 (colon cancer cell line) [HT-29 (RRID:CVCL_0320)] and A-549 (epithelial cancer cell line)[A-549 (RRID:CVCL_0023)], respectively. All cell lines were obtained from ATCC (American Type Cell Culture).
(§6) To calculate the total nuclear DNA, a fluorescent dye (propidium iodide, PI) is used which can attach to the DNA, thus offering a quick and precise technique. PI cannot pass through the cell membrane and its signal intensity can be considered as directly proportional to quantity of cellular DNA. Cells whose cell membranes are damaged or have changed permeability are counted as dead ones. The assay was performed by seeding the cells of different cell lines at a density of 3000-7500 cells/well (in 200 μl medium) in culture plates followed by incubation for 24 h at 37 °C in humidified 5% CO2 /95% air atmospheric conditions. The medium was removed; the compounds were added to the plates at 10 μM concentrations (in 0.1% DMSO) in triplicates, followed by incubation for 48 h. DMSO (0.1%) was used as control. After incubation, medium was removed followed by the addition of PI (25 μl, 50 μg/mL in water/medium) to each well of the plates. At -80 °C, the plates were allowed to freeze for 24 h, followed by thawing at 25 °C. A fluorometer (Polar-Star BMG Tech) was used to record the readings at excitation and emission wavelengths of 530 and 620 nm for each well. The percentage cytotoxicity of compounds was calculated using the following formula: […]

[5] = system: Bcl-2; assay: Apoptotic markers assay, Bcl-2 level in A-549 cells; format: cell-based, human; conditions: for Bcl-2 level: control 5
Description: as §1, §2
Mix all the reagents thoroughly without foaming before use. Wash the microwells twice with approximately 300 μL Wash Buffer per well with thorough aspiration of microwell contents between washes. Take caution not to scratch the surface of the microwells. After the last wash, empty the wells and tap microwell strips on absorbent pad or paper towel to remove excess Wash Buffer. Use the microwell strips immediately after washing or place upside down on a wet absorbent paper for not longer than 15 minutes. […] Add 100 μL of Sample Diluent in duplicate to all standard wells and to the blank wells. Prepare standard (1:2 dilution) in duplicate ranging from 32 ng/mL to 0.5 ng/mL. Add 100 μL of Sample Diluent, in duplicate, to the blank wells. Add 80 μL of Sample Diluent, in duplicate, to the sample wells. Add 20 μL of each Sample, in duplicate, to the designated wells. Add 50 μL of diluted biotin-conjugate to all wells, including the blank wells. Cover with a plate cover and incubate at room temperature, on a microplate shaker at 100 rpm if available, for 2 hours. Remove plate cover and empty the wells. Wash microwell strips 3 times as described in step 2. Add 100 μL of diluted Streptavidin-HRP to all wells, including the blank wells. Cover with a plate cover and incubate at room temperature, on a microplate shaker at 100 rpm if available, for 1 hour. Remove the plate cover and empty the wells. Wash microwell strips 3 times as described in step 2. Proceed to the next step. Pipette 100 μl of mixed TMB Substrate Solution to all wells, including the blanks. Incubate the microwell strips at room temperature (18° to 25°C) for about 15 minutes, if available on a rotator set at 100 rpm. Avoid direct exposure to intense light. The point, at which the substrate reaction is stopped, is often determined by the ELISA reader. Many ELISA readers record absorbance only up to 2.0 O.D. Therefore, the color development within individual microwells must be watched by the person running the assay and the substrate reaction stopped before positive wells are no longer properly detectable. Stop the enzyme reaction by quickly pipetting 100 μL of Stop Solution into each well, including the blank wells. It is important that the Stop Solution is spread quickly and uniformly throughout the microwells to completely inactivate the enzyme. Results must be read immediately after the Stop Solution is added or within one hour if the microwell strips are stored at 2 - 8°C in the dark. Read the absorbance of each microwell on a spectrophotometer using 450 nm as the primary wavelength.

[6] = system: Panc-1 (pancreatic) cancer cell line; assay: Antiproliferative assay, Panc-1; format: cell-based, human; conditions: read-out: Antiproliferative activity IC50 ± SEM, Panc-1
Description: as §3, §4, §5, §6

[7] = Cell viability assay (MTT) on normal cell line; conditions: human, MCF-10A normal mammary gland epithelial cells
Description: (§7) The viability of the investigated compounds was assessed using the normal human mammary gland epithelial cell line MCF-10A. After four days of incubation on MCF-10A cells with 50 µM of each examined compound, cell viability was assessed using the MTT test[46]^,[47].
(§8) The viability of 7a–o was determined using the normal human mammary gland epithelial (MCF-10A) cell line^46,[47].
(§9) MTT assay was performed to investigate the effect of the synthesized compounds on mammary epithelial cells (MCF-10A). The cells were propagated in medium consisting of Ham's F-12 medium/ Dulbecco's modified Eagle's medium (DMEM) (1:1) supplemented with 10% foetal calf serum (GIBCO, UK), 2 mM glutamine, insulin (10 μg/mL), hydrocortisone (500 ng/mL) and epidermal growth factor (20 ng/mL). Trypsin ethylenediamine tetra acetic acid (EDTA) was used to passage the cells after every 2-3 days. 96-well flat-bottomed cell culture plates were used to seed the cells at a density of 10^4 cells mL^-1. The medium was aspirated from all the wells of culture plates after 24 h followed by the addition of synthesized compounds (in 200 μL medium to yield a final concentration of 0.1% (v/v) dimethyl sulfoxide) into individual wells of the plates. Four wells were designated to a single compound. The plates were allowed to incubate at 37°C for 96 h. Afterwards, the medium was aspirated and 3-[4,5-dimethylthiazol-2-yl]-2,5-diphenyltetrazolium bromide (MTT) (0.4 mg/mL) in medium was added to each well and subsequently incubated for 3 h. The medium was aspirated and 150 μL dimethyl sulfoxide (DMSO) was added to each well. The plates were vortexed followed by the measurement of absorbance at 540 nm on a microplate reader.

[8] = system: MCF-7 (breast) cancer cell line; assay: Antiproliferative assay, MCF-7; format: cell-based, human; conditions: for IC50: read-out: Antiproliferative activity IC50 ± SEM, MCF-7; for Fold more potent than erlotinib (MCF-7 IC50): MCF-7 IC50 ratio to erlotinib
Description: as §3, §4, §5, §6

[9] = system: A-549 (lung) cancer cell line; assay: Antiproliferative assay, A-549; format: cell-based, human; conditions: read-out: Antiproliferative activity IC50 ± SEM, A-549
Description: as §3, §4, §5, §6

[10] = biological target: VEGFR-2 (Homo sapiens, UniProt P35968); assay: VEGFR-2 kinase inhibitory assay
Sequence of VEGFR-2 (P35968 20-1356): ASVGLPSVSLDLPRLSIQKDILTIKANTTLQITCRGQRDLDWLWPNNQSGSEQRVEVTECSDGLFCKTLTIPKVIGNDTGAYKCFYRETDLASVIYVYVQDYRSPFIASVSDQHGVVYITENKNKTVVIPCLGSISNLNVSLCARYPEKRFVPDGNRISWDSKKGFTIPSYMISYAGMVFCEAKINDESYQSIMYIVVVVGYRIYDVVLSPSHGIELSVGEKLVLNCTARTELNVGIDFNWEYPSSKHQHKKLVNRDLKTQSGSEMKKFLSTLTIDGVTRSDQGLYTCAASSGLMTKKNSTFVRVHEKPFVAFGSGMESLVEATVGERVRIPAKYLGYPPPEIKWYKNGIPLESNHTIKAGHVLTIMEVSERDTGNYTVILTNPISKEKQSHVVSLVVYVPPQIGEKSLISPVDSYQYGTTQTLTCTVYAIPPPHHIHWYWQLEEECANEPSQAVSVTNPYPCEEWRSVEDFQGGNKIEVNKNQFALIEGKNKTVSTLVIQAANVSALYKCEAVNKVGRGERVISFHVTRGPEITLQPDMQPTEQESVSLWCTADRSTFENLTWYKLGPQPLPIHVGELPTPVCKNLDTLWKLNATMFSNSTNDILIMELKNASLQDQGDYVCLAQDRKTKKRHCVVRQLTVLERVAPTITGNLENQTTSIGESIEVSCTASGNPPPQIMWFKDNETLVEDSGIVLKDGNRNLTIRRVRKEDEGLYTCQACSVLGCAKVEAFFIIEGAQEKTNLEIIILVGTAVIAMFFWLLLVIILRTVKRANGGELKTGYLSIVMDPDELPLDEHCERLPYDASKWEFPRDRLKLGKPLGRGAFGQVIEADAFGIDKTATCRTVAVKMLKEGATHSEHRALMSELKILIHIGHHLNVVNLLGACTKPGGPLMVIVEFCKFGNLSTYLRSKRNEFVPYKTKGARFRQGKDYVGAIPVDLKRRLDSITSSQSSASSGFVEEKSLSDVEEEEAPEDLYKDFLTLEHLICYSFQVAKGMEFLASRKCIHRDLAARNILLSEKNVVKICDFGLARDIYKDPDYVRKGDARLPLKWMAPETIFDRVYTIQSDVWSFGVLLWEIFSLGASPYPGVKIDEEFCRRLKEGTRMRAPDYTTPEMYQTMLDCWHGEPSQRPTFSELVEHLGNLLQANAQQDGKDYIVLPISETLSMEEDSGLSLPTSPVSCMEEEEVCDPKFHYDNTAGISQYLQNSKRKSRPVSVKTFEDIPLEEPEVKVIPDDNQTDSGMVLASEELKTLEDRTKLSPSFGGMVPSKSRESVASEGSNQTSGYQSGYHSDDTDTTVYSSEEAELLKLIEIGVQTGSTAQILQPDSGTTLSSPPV
Description: Prepare all the solutions using autoclaved, deionized water and analytical grade reagents. Prepare and store all the reagents at room temperature (unless indicated otherwise). […] The assays used an ULight-labeled peptide substrate and a Europium-W1024-labeled antiphosphotyrosine antibody. The VEGFR-2 was purchased from Carna Biosciences, Inc. (New York, USA). The 384-well plates were obtained from PerkinElmer. […] Negative control: 2.5 μL/well 4×substrate/ATP mixture and 7.5 μL 1×kinase assay buffer in 384-well plate well. […] After incubation at room temperature and dark for 60 min, 5 μL 4×stop solution was added to corresponding wells to react for 5 min and then 5 μL 4×detection mix was added to the corresponding wells of a 384-well plate. The mixture was centrifugally mixed and stayed for 60 min at room temperature for color development. The plate was read using an Envision plate reader. The inhibition rate (%) = (positive well reading-compound well reading)/(positive well reading-negative well reading)×100. The corresponding IC50 values were calculated using GraphPad Prism 5.0.

[11] = system: Bax; assay: Apoptotic markers assay, Bax level in A-549 cells; format: cell-based, human; conditions: for Bax level: control 60; for Bax fold change: relative to untreated control
Description: as §1, §2
Bring all reagents, except the human Bax-α Standard, to room temperature for at least 30 minutes prior to opening. The human Bax-α Standard solution should not be left at room temperature for more than 10 minutes. All standards, controls and samples should be run in duplicate. Refer to the Assay Layout Sheet to determine the number of wells to be used and put any remaining wells with the desiccant back into the pouch and seal the ziploc. Store unused wells at 4 °C. Pipet 100 μL of Assay Buffer into the S0 (0 pg/mL standard) wells. Pipet 100 μL of Standards #1 through #6 into the appropriate wells. Pipet 100 μL of the Samples into the appropriate wells. Tap the plate gently to mix the contents. Seal the plate and incubate at room temperature on a plate shaker for 1 hour at ~500 rpm. Empty the contents of the wells and wash by adding 400 μL of wash solution to every well. Repeat the wash 4 more times for a total of 5 washes. After the final wash, empty or aspirate the wells and firmly tap the plate on a lint free paper towel to remove any remaining wash buffer. Pipet 100 μL of yellow Antibody into each well, except the Blank. Seal the plate and incubate at room temperature on a plate shaker for 1 hour at ~500 rpm. Empty the contents of the wells and wash by adding 400 μL of wash solution to every well. Repeat the wash 4 more times for a total of 5 washes. After the final wash, empty or aspirate the wells and firmly tap the plate on a lint free paper towel to remove any remaining wash buffer. Add 100 μL of blue Conjugate to each well, except the Blank. Seal the plate and incubate at room temperature on a plate shaker for 30 minutes at ~500 rpm. Empty the contents of the wells and wash by adding 400 μL of wash solution to every well. Repeat the wash 4 more times for a total of 5 washes. After the final wash, empty or aspirate the wells and firmly tap the plate on a lint free paper towel to remove any remaining wash buffer. Pipet 100 μL of Substrate Solution into each well. Incubate for 30 minutes at room temperature on a plate shaker at ~500 rpm. Pipet 100 μL Stop Solution to each well. Blank the plate reader against the Blank wells, read the optical density at 450 nm. Calculate the average net Optical Density (OD) bound for each standard and sample by subtracting the average Blank OD from the average OD for each standard and sample. Using linear graph paper, plot the Average Net OD for each standard versus Bax concentration in each standard. Approximate a straight line through the points. The concentration of Bax in the unknowns can be determined by interpolation.

[12] = biological target: VEGFR-2 kinase; conditions: read-out: VEGFR-2 kinase IC50; cited from earlier work
[13] = system: EGFR^L858R; parameters: method as in PMID 26275028; conditions: cited from earlier work
[14] = system: wild-type EGFR; parameters: method as in PMID 26275028; conditions: cited from earlier work
[15] = system: EGFR^T790M; parameters: method as in PMID 26275028; conditions: cited from earlier work
[16] = system: MCF-10A; conditions: 50 µM
Description: as §7, §8, §9

Compound	IC50 ([1]; EGFR inhibition IC50 ± SEM) [nM]	p53 level [2] [pg/mL]	IC50 ([3]; Homo sapiens) [nM]	IC50 ([4]; Homo sapiens) [nM]	Bcl-2 level [5] [ng/mL]	IC50 ([6]; Homo sapiens, PANC-1) [nM]	viability at 96 h, 50 µM [7] [%]	IC50 ([8]; Homo sapiens, MCF7) [nM]	IC50 ([9]; Homo sapiens, A549) [nM]	IC50 [10] [nM]	Bax level [11] [pg/mL]	Bax fold change [11]	further results
CCS(=O)(=O)c1ccc2[nH]nc(C(=O)N/N=C/c3nc4ccccc4s3)c2c1 [Compound 7j, (E)-N′-(benzo[d]thiazol-2-ylmethylene)-5-(ethylsulfonyl)-1H-indazole-3-carbohydrazide]	74 ± 4	340 ± 2	27	27 ± 1	1.50 ± 0.001	26 ± 1	91	28 ± 1	26 ± 1	27 ± 1	505 ± 3	8 fold and 8.5 fold	–
CCS(=O)(=O)c1ccc2[nH]nc(C(=O)N/N=C/c3ccc(OC)nc3)c2c1 [Compound 7k, (E)-5-(ethylsulfonyl)-N′-((6-methoxypyridin-3-yl)methylene)-1H-indazole-3-carbohydrazide]	71 ± 4	371 ± 2	25	24 ± 1	1.20 ± 0.001	25 ± 1	93	26 ± 1	24 ± 1	21 ± 1	540 ± 3	9 fold	Fold more effective than erlotinib (GI50) ([3]; GI50 ratio to erlotinib): 1.3 fold; Bcl-2 fold reduction ([5]; relative to untreated control): 4.2 fold; Fold more potent than erlotinib (MCF-7 IC50) [8]: 1.5 fold
CCS(=O)(=O)c1ccc2[nH]nc(C(=O)N/N=C/c3ccn(C)n3)c2c1 [Compound 7o, (E)-5-(ethylsulfonyl)-N′-((1-methyl-1H-pyrazol-3-yl)methylene)-1H-indazole-3-carbohydrazide]	76 ± 4	285 ± 2	30	29 ± 1	1.80 ± 0.001	29 ± 1	92	32 ± 1	29 ± 1	31 ± 2	480 ± 2	8 fold	Fold more potent than erlotinib (MCF-7 IC50) [8]: 1.25 fold
CN(c1ccc2cn(C)nc2c1)c1ccnc(Nc2ccc(OC(F)(F)F)cc2)n1 [Compound IX]	–	–	–	–	–	–	–	–	–	–	–	–	IC50 [12]: 12 nM
C=CC(=O)Nc1cccc(Oc2nc(Nc3n[nH]c4ccccc34)cc(N3CCN(C)CC3)n2)c1 [Compound VIII]	–	–	–	–	–	–	–	–	–	–	–	–	IC50 [13]: 500 nM; IC50 [14]: 1700 nM; IC50 [15]: 70 nM
(E)-5-(ethylsulfonyl)-N′-(3-methoxybenzylidene)-1H-indazole-3-carbohydrazide [Compound 7l]	–	–	–	–	–	–	–	–	–	–	–	–	IC50 ([1]; read-out: EGFR inhibition IC50 ± SEM): 87 ± 5 nM; Fold less potent than 7k (GI50) ([3]; GI50 ratio to 7k): 1.7 fold; IC50 [3]: 42 nM; IC50 [4]: 42 ± 4 nM; IC50 ([6]; Panc-1): 42 ± 4 nM; IC50 ([8]; MCF-7): 43 ± 3 nM; IC50 ([9]; A-549): 41 ± 3 nM; IC50 ([10]; read-out: VEGFR-2 inhibition IC50 ± SEM, kinase assay): 45 ± 3 nM; Cell viability % [16]: 91%
